Results taken from patent US12521425B2, “Method of liver cancer treatment with safranal-based formulations” (priority 2019, dated 2026).

How the values were obtained:
[1] = male rats, oral (Hosseinzadeh et al., 2013); cited from earlier work
HepG2 cells [2] = assay: Annexin V binding assay; format: cell-based; settings: HepG2, 500 μM, after 48 hours; increase from 8%
[3] = tested on: DEN-induced hepatic neoplasia; assay: Serum ALT and AST in DEN-induced HCC model; format: in vivo, male Wistar rats; settings: HCC rats, oral gavage 5 days a week, weeks 17-19, safranal 200 mg/kg, sorafenib 10 mg/kg, mean±SEM, n=6
Procedure: A modified version of the protocol described by DePeralta et al. (2016) and Schiffer et al. (2005) was used here to establish the hepatocarcinogenesis model.
On the first 15 weeks, the control PBS group was treated with 1×PBS, whereas the experimental groups were given an intraperitoneal injection (IP) of 50 mg/kg of diethylnitrosoamine (DEN, Sigma Aldrich), a widely used chemical for inducing cancer, once a week. DEN was diluted with 1×PBS. Following a one-week break (week 16), the next three weeks (weeks 17 to 19) of treatment commenced. All drugs were administrated by oral gavage. All doses were chosen according to literature (Alsaied et al., 2014; Karafakioglu et al., 2017). For the HCC+sorafenib group, the drug (Carbosynth Limited) was administered at a dose of 10 mg/kg, five days a week. For the HCC+safranal group, the drug (Sigma Aldrich) was administered at a dose of 200 mg/kg, five days a week. For the HCC+safranal+sorafenib group, the drugs were administered at a dose of 200 mg/kg safranal+10 mg/kg sorafenib, five days a week. Both safranal and sorafenib were diluted with 1×PBS and drops of Tween 80. […] After 24-hours from last treatment, the rats were euthanized by mild diethyl ether and dissected in equal conditions. Blood and whole liver were collected.
Rats were euthanized then blood was collected by decapitation and processed for later investigation. The blood was collected in collection tubes (BD Vacutainer) and serum was separated by centrifugation at 1200× g for 10 minutes. Serum was collected and flash frozen immediately then stored at −80° C. for further analysis.
Alanine Transaminase (ALT), and Aspartate Aminotransferase (AST) assays were performed using commercial kits (Abcam), according to the protocol provided. ALT and AST activities were measured spectrophotometrically using Epoch by BioTek.

HepG2 cells [4] = assay: MTT assay, cell viability; format: cell-based; settings: HepG2, 50-900 μM for 24, 48 and 72 hours; read-out: IC50, inhibition of cellular viability
Procedure: MTT assay. HepG2 cells were seeded at a density of 5000 cells/well in 96-well plates in 100 μL of complete growth medium. Cells were allowed to attach before being treated with different concentrations of safranal (Sigma Aldrich) (50 μM, 100 μM, 500 μM, 700 μM and 900 μM) for 24, 48 and 72 hours. After which, the cells were treated with 3-[4,5-dimethylthiazol-2-yl]-2,5-diphenyltratrazolium bromide (MTT) (Sigma Aldrich) and incubated for 3 hours. The formed formazan crystals were dissolved using DMSO and the absorbance of the resulting product was measured at 570 nm using an Epoch microplate spectrophotometer (Bio-Tek). Cell viability is presented as percentile of the untreated control which was calculated accordingly: Percent of viable cells=(Abs. of treated cells/Abs. of control cells)×100. *p≤0.05, **p≤0.001, ***p≤0.0001.

HepG2 cells [5] = assay: Cell morphology, crystal violet; format: cell-based; settings: HepG2, increasing doses, 24 hours
Procedure: Cell morphology. HepG2 were seeded at a density of 0.25×10^6 cells/well in 6-well plate. After allowing the cell to attach, HepG2 cells were treated without or with different concentrations of safranal (30, 50, 100, 500, 700 μM) for 24 hrs. After which, cells were fixed and stained with crystal violet. The morphology of the cells was assessed after being fixed and stained with 0.5% crystal violet using IX53 microscope (Olympus).

HepG2 cells [6] = assay: RNAseq differential gene expression and GO enrichment; format: cell-based, Homo sapiens; settings: for genes significantly differentially expressed: vs untreated
Procedure: RNAseq libraries construction and sequencing. Total RNA was isolated from three biological replicates of safranal treatments and untreated sample using RNeasy Mini Kit (Qiagen) following the manufacturer's instructions. The RNAseq libraries were prepared using TruSeq RNA sample prep kit (Illumina, Inc.) following the manufacturer's instructions. Briefly, TruSeq RNA sample prep kit converts the poly-A containing mRNA in total RNA into a cDNA library using poly-T oligo-attached magnetic bead selection. Following mRNA purification, the RNA is chemically fragmented prior to reverse transcription and cDNA generation. The fragmentation step results in an RNAseq library that includes inserts that range in size from approximately 100-400 bp. The average insert size in an Illumina TruSeq RNA sequencing library is approximately 200 bp. The cDNA fragments then go through an end repair process, the addition of a single ‘A’ base to the 3′ end and then ligation of the adapters. Then, the products are purified and enriched with PCR to create the final double stranded cDNA libraries. Finally, libraries quality control and quantification were performed with a Bioanalyzer Chip DNA 1000 series II (Agilent) and sequenced directly using the high-throughput Illumina HiSeq sequencing system (Illumina, Inc.).
Alignment and analysis of Illumina reads against the reference genome. The data was processed through the standard RNAseq analysis pipeline at NYUAD. Briefly, alignments were performed using tophat2 v2.1.0 with the parameters “-no-novel-junctions” and “-G” when specifying the genome file. Following the tophat2 alignment stage, read counts were generated using HTseq count, and the counts were analyzed using the DESeq2 R library. The reference genome and GFF annotation correspond to the Homo sapiens GRCh38.p2 genome version. Venn diagram summarizing the gene expression analysis was constructed using the web-based tool InteractiVenn. Heatmaps were produced by Excel.
Gene set enrichment analysis. Functional and gene set enrichment analysis of DEGs was performed using eXploring Genomic Relations (XGR) which is an open source tool for enrichment analysis with default parameters. The enrichment test is based on Hypergeometric distribution to identify the enriched gene ontology terms. The false positive rate was calculated by simulating a random set of genes of different sizes and found they were independent of the size of gene sets. Network analysis of over-representation GO terms was performed using the Biological Networks Gene Ontology tool (BiNGO) plug-in for Cytoscape. BiNGO retrieved the relevant GO Biological process annotation then tested for significance using the hypergeometric test and corrected multiple testing using Benjamini and Hochberg false discovery rate (FDR) correction ≤0.05.

Structure (SMILES): CC1=C(C=O)C(C)(C)CC=C1 [safranal]
- oral LD50 [1]: 5.53 mL/kg
- number of dead cells (annexin V) (HepG2 cells [2]): 31%
- ALT [3]: 10.93 ± 0.29^b**^,c* mU/ml
- AST [3]: 7.80 ± 2.02 mU/ml
- IC50 (HepG2 cells [4]): 500 µM
- morphological changes (HepG2 cells [5]): morphological alterations including more rounded cell shapes, cell shrinkage, and increased detachment
- genes downregulated (HepG2 cells [6]; 12 hours): 3,769 genes
- genes upregulated (HepG2 cells [6]; 12 hours): 2,812 genes
- genes significantly differentially expressed (HepG2 cells [6]; 12 hours): 6,581 genes
- genes downregulated (HepG2 cells [6]; 24 hours): 5,331 genes
- genes upregulated (HepG2 cells [6]; 24 hours): 2,458 genes
- genes significantly differentially expressed (HepG2 cells [6]; 24 hours): 7,789 genes
- N, GO term Cell migration (HepG2 cells [6]; Downregulated 12 h): 28
- N, GO term Growth (HepG2 cells [6]; Downregulated 12 h): 27
- N, GO term Wound healing (HepG2 cells [6]; Downregulated 12 h): 25
- N, GO term Cell adhesion (HepG2 cells [6]; Downregulated 24 h): 149
- N, GO term Signal transduction (HepG2 cells [6]; Downregulated 24 h): 327
- N, GO term Wound healing (HepG2 cells [6]; Downregulated 24 h): 32
- N, GO term Cellular Response to DNA damage stimulus (HepG2 cells [6]; Upregulated 12 h): 48
- N, GO term Proteasome-mediated ubiquitin-dependent protein catabolic process (HepG2 cells [6]; Upregulated 12 h): 47
- N, GO term Response to unfolded protein (HepG2 cells [6]; Upregulated 12 h): 14
- N, GO term Apoptotic mitochondrial changes (HepG2 cells [6]; Upregulated 24 h): 6
- N, GO term Proteasome-mediated ubiquitin-dependent protein catabolic process (HepG2 cells [6]; Upregulated 24 h): 50
- N, GO term Response to unfolded protein (HepG2 cells [6]; Upregulated 24 h): 12
